The structures appear in SMILES notation. A value given as a limit tells only on which side of the number the result lay.

For this assay, the target named is IKZF2 (Homo sapiens (Human), UniProt Q96SW2+Q9UKS7). Nature of the assay: IKZF2 HiBiT Assay (Jurkat-IKZF2-HiBiT cell line). The following applies: Jurkat-IKZF2-HiBiT cells, 24 hours; for DC50: read-out: HiBit assay degradation analysis DC50; for Dmax: read-out: HiBit assay degradation analysis Dmax. The class given is cell-based. As for the experimental part: Degradation of IKZF2 protein is determined by IKZF2 HiBiT assay using the Jurkat-IKZF2-HiBiT (Promega) cell line. Briefly, cells are seeded in culture medium. Compounds are serially diluted in culture medium, and certain volume of the diluted compounds is added to the appropriate well of the plate. After the addition of compounds, the cells are incubated. At the end of treatment, Nano-Glo HiBiT Lytic Detection Reagent (Promega) is added to each well, and then the plates are incubated at room temperature for a certain time period. The luminescent signal is measured using a CALRIOstar plate reader (BMG Labtech). The readings are normalized to the DMSO-treated cells and the IC50 is calculated by nonlinear regression (four parameters sigmoid fitted with variable slope, least squares fit, and no constraint) analysis using the GraphPad Prism 8 software.
Chain of IKZF2 (Q9UKS7 whole entry): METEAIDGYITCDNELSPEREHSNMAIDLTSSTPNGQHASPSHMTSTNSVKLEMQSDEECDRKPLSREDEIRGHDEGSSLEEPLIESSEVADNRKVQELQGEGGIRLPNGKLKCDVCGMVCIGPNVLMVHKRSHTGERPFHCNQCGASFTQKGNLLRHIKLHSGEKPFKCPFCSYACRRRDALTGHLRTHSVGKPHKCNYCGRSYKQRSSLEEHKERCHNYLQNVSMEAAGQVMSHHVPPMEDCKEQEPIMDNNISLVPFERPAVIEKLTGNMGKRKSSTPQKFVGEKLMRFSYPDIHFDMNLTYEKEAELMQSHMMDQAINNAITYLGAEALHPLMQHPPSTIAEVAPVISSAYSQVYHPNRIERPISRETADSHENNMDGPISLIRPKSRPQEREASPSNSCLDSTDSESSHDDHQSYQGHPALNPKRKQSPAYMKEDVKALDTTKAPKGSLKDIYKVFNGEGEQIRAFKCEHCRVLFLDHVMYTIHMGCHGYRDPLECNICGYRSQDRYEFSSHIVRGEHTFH
Chain of IKZF2 (Q96SW2 whole entry): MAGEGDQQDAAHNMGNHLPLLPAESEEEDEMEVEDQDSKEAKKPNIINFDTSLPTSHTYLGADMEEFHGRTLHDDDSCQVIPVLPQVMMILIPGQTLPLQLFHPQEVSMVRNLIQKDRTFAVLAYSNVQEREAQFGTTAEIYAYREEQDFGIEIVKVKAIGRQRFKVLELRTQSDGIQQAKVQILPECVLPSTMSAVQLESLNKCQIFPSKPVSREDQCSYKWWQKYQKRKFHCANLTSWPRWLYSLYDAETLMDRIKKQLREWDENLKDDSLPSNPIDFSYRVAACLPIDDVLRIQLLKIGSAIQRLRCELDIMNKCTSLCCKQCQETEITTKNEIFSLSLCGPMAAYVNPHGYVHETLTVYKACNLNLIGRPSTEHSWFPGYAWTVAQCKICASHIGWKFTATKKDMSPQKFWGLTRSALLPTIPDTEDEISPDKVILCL
Chain of IKZF2 (Q16531 whole entry partner): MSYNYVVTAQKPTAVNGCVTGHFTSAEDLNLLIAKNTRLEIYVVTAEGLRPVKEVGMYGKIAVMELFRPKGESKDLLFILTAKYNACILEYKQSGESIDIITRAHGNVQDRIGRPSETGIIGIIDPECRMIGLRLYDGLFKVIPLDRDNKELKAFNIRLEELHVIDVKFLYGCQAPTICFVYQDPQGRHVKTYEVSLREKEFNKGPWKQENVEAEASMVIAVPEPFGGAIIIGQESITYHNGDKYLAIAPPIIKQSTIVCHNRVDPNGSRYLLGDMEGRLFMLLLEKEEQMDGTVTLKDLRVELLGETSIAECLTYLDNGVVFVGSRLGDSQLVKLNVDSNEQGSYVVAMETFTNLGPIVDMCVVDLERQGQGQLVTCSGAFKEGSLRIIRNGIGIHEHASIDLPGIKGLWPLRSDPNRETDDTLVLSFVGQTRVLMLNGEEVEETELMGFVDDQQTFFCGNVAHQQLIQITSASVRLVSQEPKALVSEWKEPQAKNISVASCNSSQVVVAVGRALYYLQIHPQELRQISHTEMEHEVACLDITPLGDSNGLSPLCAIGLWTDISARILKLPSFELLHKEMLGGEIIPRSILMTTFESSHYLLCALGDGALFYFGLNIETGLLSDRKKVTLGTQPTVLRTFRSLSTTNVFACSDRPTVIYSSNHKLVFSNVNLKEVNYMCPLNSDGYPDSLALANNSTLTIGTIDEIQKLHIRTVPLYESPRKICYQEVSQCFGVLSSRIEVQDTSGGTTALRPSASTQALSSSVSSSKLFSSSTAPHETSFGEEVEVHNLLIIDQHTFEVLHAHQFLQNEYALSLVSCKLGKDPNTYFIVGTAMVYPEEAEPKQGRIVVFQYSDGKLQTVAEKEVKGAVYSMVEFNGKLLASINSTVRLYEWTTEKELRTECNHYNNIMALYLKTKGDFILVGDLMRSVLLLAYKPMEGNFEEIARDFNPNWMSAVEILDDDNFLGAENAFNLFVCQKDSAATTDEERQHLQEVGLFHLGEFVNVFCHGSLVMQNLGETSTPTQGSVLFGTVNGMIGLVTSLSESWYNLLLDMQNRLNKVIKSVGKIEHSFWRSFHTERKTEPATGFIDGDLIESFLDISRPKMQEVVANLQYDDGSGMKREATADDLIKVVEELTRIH
Degradation of IKZF2 protein was determined by IKZF2 HiBiT assay using the Jurkat-IKZF2-HiBiT (Promega) cell line. […] Compounds were serially diluted in culture medium, and 20 μl of the diluted compounds were added to the appropriate wells of the plate. After the addition of compounds, the cells were incubated at 37° C. in an atmosphere of 5% CO2 for 24 hours. At the end of treatment, 40 ul of Nano-Glo HiBiT Lytic Detection Reagent (Promega) was added to each well, and then the plates were incubated at room temperature for 10-20 minutes. The luminescent signal was measured using a CALRIOstar plate reader (BMG Labtech). The readings were normalized to the DMSO-treated cells and the IC50 was calculated by nonlinear regression (four parameters sigmoid fitted with variable slope, least squares fit, and no constraint) analysis using the GraphPad Prism 8 software.
Background: With HiBiT, luminescence reflects the tagged protein that the partner subunit can reach.

As for `CNC(=O)c1cccc(CN2CCC3(CC2)COc2c3ccc3c2CN(C2CCC(=O)NC2=O)C3=O)c1` (centres unmarked) [Compound A95], the DC50 (in general, the midpoint of the concentration-degradation curve) was more than 500 nM and the Dmax (commonly the greatest extent of degradation seen) was 40 to 60%. On the same counts, the results for `CCn1ncc2ccc(CN3CCC4(CC3)COc3c4ccc4c3CN([C@H]3CCC(=O)NC3=O)C4=O)cc21` [Compound A298, (S)-3-(1′-((1-ethyl-1H-indazol-6-yl)methyl)-6-oxo-6,8-dihydro-2H,7H-spiro[furo[2,3-e]isoindole-3,4′-piperidin]-7-yl)piperidine-2,6-dione] are 50 to 200 nM and 60 to 80%. On the same counts, the results for `O=C1CCC(N2Cc3c(ccc4c3OCC43CCN(Cc4cccc(-c5cnn(C6CC6)c5)c4)CC3)C2=O)C(=O)N1` (centres unmarked) [Compound A174, 3-(1′-(3-(1-cyclopropyl-1H-pyrazol-4-yl)benzyl)-6-oxo-6,8-dihydro-2H,7H-spiro[furo[2,3-e]isoindole-3,4′-piperidin]-7-yl)piperidine-2,6-dione] are less than 50 nM and 60 to 80%. Consider `O=C1CCC(N2Cc3c(ccc4c3OCC43CCN(Cc4cnn(S(=O)(=O)c5cccc(Cl)c5F)c4)CC3)C2=O)C(=O)N1` [Compound A357, (S)-3-(1′-((1-((3-chloro-2-fluorophenyl)sulfonyl)-1H-pyrazol-4-yl)methyl)-6-oxo-6,8-dihydro-2H,7H-spiro[furo[2,3-e]isoindole-3,4′-piperidin]-7-yl)piperidine-2,6-dione], for which the DC50 was less than 50 nM.

`O=C1CCC(N2Cc3c(ccc4c3OCC43CCN(Cc4cnc5[nH]ccc5c4)CC3)C2=O)C(=O)N1` (centres unmarked) [Compound A163, 3-(1′-((1H-pyrrolo[2,3-b]pyridin-5-yl)methyl)-6-oxo-6,8-dihydro-2H,7H-spiro[furo[2,3-e]isoindole-3,4′-piperidin]-7-yl)piperidine-2,6-dione]: the DC50 was less than 50 nM and the Dmax fell in the range of 60 to 80%.

As to `O=C1CCC(N2Cc3c(ccc4c3OCC43CCN(Cc4ccc(F)cc4)CC3)C2=O)C(=O)N1` (centres unmarked) [Compound A192, 3-(1′-(4-fluorobenzyl)-6-oxo-6,8-dihydro-2H,7H-spiro[furo[2,3-e]isoindole-3,4′-piperidin]-7-yl)piperidine-2,6-dione], the DC50 was more than 500 nM and the greatest degradation seen (Dmax) lay within 40 to 60%. For the molecule `O=C1CCC(N2Cc3c(ccc4c3OCC43CCN(Cc4cccs4)CC3)C2=O)C(=O)N1` (centres unmarked) [Compound A182, 3-(6-oxo-1′-(thiophen-2-ylmethyl)-6,8-dihydro-2H,7H-spiro[furo[2,3-e]isoindole-3,4′-piperidin]-7-yl)piperidine-2,6-dione], the half-maximal degradation concentration (DC50) is more than 500 nM and the Dmax was 40 to 60%. On the same counts, the results for `O=C1CCC(N2Cc3c(ccc4c3OCC43CCN(Cc4ccc5cccnc5c4)CC3)C2=O)C(=O)N1` (centres unmarked) [Compound A64, 3-(6-oxo-1′-(quinolin-7-ylmethyl)-6,8-dihydro-2H,7H-spiro[furo[2,3-e]isoindole-3,4′-piperidin]-7-yl)piperidine-2,6-dione] are 50 to 200 nM and 60 to 80%. On to `O=C1CCC(N2Cc3c(ccc4c3OCC43CCN(Cc4ccc(-c5cn[nH]c5)cc4)CC3)C2=O)C(=O)N1` (centres unmarked) [Compound A162, 3-(1′-(4-(1H-pyrazol-4-yl)benzyl)-6-oxo-6,8-dihydro-2H,7H-spiro[furo[2,3-e]isoindole-3,4′-piperidin]-7-yl)piperidine-2,6-dione], for which the 50% degradation concentration (DC50) lay within 50 to 200 nM and the Dmax lay within 60 to 80%. For the molecule `Cn1nccc1-c1cccc(CN2CCC3(CC2)COc2c3ccc3c2CN(C2CCC(=O)NC2=O)C3=O)c1` (centres unmarked) [Compound A144, 3-(1′-(3-(1-methyl-1H-pyrazol-5-yl)benzyl)-6-oxo-6,8-dihydro-2H,7H-spiro[furo[2,3-e]isoindole-3,4′-piperidin]-7-yl)piperidine-2,6-dione], the DC50 fell in the range of 200 to 500 nM and the Dmax lay within 40 to 60%.

On to `COc1cccc(CN2CCC3(CC2)COc2c3ccc3c2CN(C2CCC(=O)NC2=O)C3=O)c1` (centres unmarked) [Compound A212, 3-(1′-(3-methoxybenzyl)-6-oxo-6,8-dihydro-2H,7H-spiro[furo[2,3-e]isoindole-3,4′-piperidin]-7-yl)piperidine-2,6-dione], for which the DC50 was more than 500 nM and the Dmax was in the range of 40 to 60%. For the molecule `O=C1CCC(N2Cc3c(ccc4c3OCC43CCN(Cc4ccn(-c5ccccc5Cl)n4)CC3)C2=O)C(=O)N1` (centres unmarked) [Compound A321, 3-(1′-((1-(2-chlorophenyl)-1H-pyrazol-3-yl)methyl)-6-oxo-6,8-dihydro-2H,7H-spiro[furo[2,3-e]isoindole-3,4′-piperidin]-7-yl)piperidine-2,6-dione], the DC50 is more than 500 nM and the Dmax is less than 40%. On the same counts, the results for `O=C1CC[C@H](N2Cc3c(ccc4c3OCC43CCN(Cc4cccc(-c5cnn(C[C@H]6CCO6)c5)c4)CC3)C2=O)C(=O)N1` [Compound A273, (S)-3-(1′-(3-(1-(((R)-oxetan-2-yl)methyl)-1H-pyrazol-4-yl)benzyl)-6-oxo-6,8-dihydro-2H,7H-spiro[furo[2,3-e]isoindole-3,4′-piperidin]-7-yl)piperidine-2,6-dione] are 50 to 200 nM and 60 to 80%. Turning to `O=C1CCC(N2Cc3c(ccc4c3OCC43CCN(Cc4ccc(C5CC5)cc4)CC3)C2=O)C(=O)N1` (centres unmarked) [Compound A205, 3-(1′-(4-cyclopropylbenzyl)-6-oxo-6,8-dihydro-2H,7H-spiro[furo[2,3-e]isoindole-3,4′-piperidin]-7-yl)piperidine-2,6-dione], the DC50 was 200 to 500 nM and the Dmax is 40 to 60%.

`O=C1CCC(N2Cc3c(ccc4c3OCC43CCN(Cc4ccccc4Cl)CC3)C2=O)C(=O)N1` (centres unmarked) [Compound A214, 3-(1′-(2-chlorobenzyl)-6-oxo-6,8-dihydro-2H,7H-spiro[furo[2,3-e]isoindole-3,4′-piperidin]-7-yl)piperidine-2,6-dione]: the half-maximal degradation concentration (DC50) lay in the range of 200 to 500 nM and the maximal degradation (Dmax) is 40 to 60%. On the same counts, the results for `CS(=O)(=O)c1ccccc1CN1CCC2(CC1)COc1c2ccc2c1CN(C1CCC(=O)NC1=O)C2=O` (centres unmarked) [Compound A234, 3-(1′-(2-(methylsulfonyl)benzyl)-6-oxo-6,8-dihydro-2H,7H-spiro[furo[2,3-e]isoindole-3,4′-piperidin]-7-yl)piperidine-2,6-dione] are more than 500 nM and less than 40%. `O=C1CCC(N2Cc3c(ccc4c3OCC43CCN(Cc4ccc(F)c5[nH]ncc45)CC3)C2=O)C(=O)N1` (centres unmarked) [Compound A136, 3-(1′-((7-fluoro-1H-indazol-4-yl)methyl)-6-oxo-6,8-dihydro-2H,7H-spiro[furo[2,3-e]isoindole-3,4′-piperidin]-7-yl)piperidine-2,6-dione]: the DC50 is less than 50 nM and the maximal degradation (Dmax) was in the range of 40 to 60%.

With `O=C1CCC(N2Cc3c(ccc4c3OCC43CCN(Cc4cccn5nccc45)CC3)C2=O)C(=O)N1` (centres unmarked) [Compound A58, 3-(6-oxo-1′-(pyrazolo[1,5-a]pyridin-4-ylmethyl)-6,8-dihydro-2H,7H-spiro[furo[2,3-e]isoindole-3,4′-piperidin]-7-yl)piperidine-2,6-dione], the DC50 was more than 500 nM and the greatest degradation seen (Dmax) lay in the range of 40 to 60%. On the same counts, the results for `O=C1CCC(N2Cc3c(ccc4c3OCC43CCN(Cc4ncsc4-c4ccccc4)CC3)C2=O)C(=O)N1` (centres unmarked) [Compound A158, 3-(6-oxo-1′-((5-phenylthiazol-4-yl)methyl)-6,8-dihydro-2H,7H-spiro[furo[2,3-e]isoindole-3,4′-piperidin]-7-yl)piperidine-2,6-dione] are more than 500 nM and less than 40%.

Regarding `O=C1CC[C@H](N2Cc3c(ccc4c3OCC43CCN(Cc4cnn(C[C@H]5C[C@@H]5c5ccccc5)c4)CC3)C2=O)C(=O)N1` [Compound A347, (S)-3-(6-oxo-1′-((1-(((1S,2S)-2-phenylcyclopropyl)methyl)-1H-pyrazol-4-yl)methyl)-6,8-dihydro-2H,7H-spiro[furo[2,3-e]isoindole-3,4′-piperidin]-7-yl)piperidine-2,6-dione], the Dmax fell in the range of 60 to 80%. Turning to `Cn1ccc(-c2cccc(CN3CCC4(CC3)COc3c4ccc4c3CN([C@H]3CCC(=O)NC3=O)C4=O)c2)n1` [Compound A267, (S)-3-(1′-(3-(1-methyl-1H-pyrazol-3-yl)benzyl)-6-oxo-6,8-dihydro-2H,7H-spiro[furo[2,3-e]isoindole-3,4′-piperidin]-7-yl)piperidine-2,6-dione], the DC50 is less than 50 nM and the maximal degradation (Dmax) lay in the range of 60 to 80%. For `O=C1CCC(N2Cc3c(ccc4c3OCCC43CCN(CC4CCCCC4)CC3)C2=O)C(=O)N1` (centres unmarked) [Compound A14, 3-(1-(cyclohexylmethyl)-7′-oxo-2′,3′,7′,9′-tetrahydro-8′H-spiro[piperidine-4,4′-pyrano[2,3-e]isoindol]-8′-yl)piperidine-2,6-dione], the DC50 was more than 500 nM and the greatest degradation seen (Dmax) was less than 40%. Take `Cc1cccc(CN2CCC3(CC2)COc2c3ccc3c2CN(C2CCC(=O)NC2=O)C3=O)c1` (centres unmarked) [Compound A213, 3-(1′-(3-methylbenzyl)-6-oxo-6,8-dihydro-2H,7H-spiro[furo[2,3-e]isoindole-3,4′-piperidin]-7-yl)piperidine-2,6-dione]: the 50% degradation concentration (DC50) is less than 50 nM and the Dmax was 60 to 80%.

These data come from US20250215012A1, “IKZF2 DEGRADERS AND USES THEREOF” (REGENTS OF THE UNIVERSITY OF MICHIGAN, priority 2022, published 2025).
